Results: PubChem BioAssay AID2060600 (Molecular Pharmacology Branch, DTP, NCI, 2025)

System: 996289-038-R-J1-PDC complex spheroid viability
Assay: Anticancer human tumor 996289-038-R-J1-PDC patient-derived colon adenocarcinoma cell line growth inhibition [CLK]
Details: for IC50: curve of first compound; for viability, T/C: stronger effect = lower value
How it was run: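 Multi-cell-type spheroids combined patient-derived tumor cells with HUVEC endothelial cells and human mesenchymal stem cells. Paired agents were dosed in half-log steps down from about clinical Cmax, or from 10 microM where Cmax was unknown.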
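Note: spheroids exposed to the agents for 7 days before readout.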

CC(C)CC(NC(=O)C(Cc1ccccc1)NC(=O)c1cnccn1)B(O)O (configuration not stated) + CN1CCN(c2cc(C(=O)Nc3cc4cc(-c5cnn(C)c5)ccc4cn3)ccn2)CC1
IC50 (second compound 0.0316 µM): 4.69 nM | IC50 (second compound 0.1 µM): 3.9 nM | IC50 (second compound 0.316 µM): 2.03 nM | IC50 (second compound 1 µM): < 0.949 nM | IC50 (second compound 3.16 µM): < 0.949 nM | IC50 (second compound 10 µM): < 0.949 nM | viability, T/C (second compound 0.0316 µM, first compound 0.000949 µM): 119% | viability, T/C (second compound 0.0316 µM, first compound 0.003 µM): 77.7% | viability, T/C (second compound 0.0316 µM, first compound 0.00949 µM): 6.22% | viability, T/C (second compound 0.0316 µM, first compound 0.03 µM): 4.45% | viability, T/C (second compound 0.0316 µM, first compound 0.0949 µM): 2.91% | viability, T/C (second compound 0.0316 µM, first compound 0.3 µM): 0.26% | viability, T/C (second compound 0.1 µM, first compound 0.000949 µM): 97.5% | viability, T/C (second compound 0.1 µM, first compound 0.003 µM): 62.8% | viability, T/C (second compound 0.1 µM, first compound 0.00949 µM): 6.36% | viability, T/C (second compound 0.1 µM, first compound 0.03 µM): 0.64% | viability, T/C (second compound 0.1 µM, first compound 0.0949 µM): 0.55% | viability, T/C (second compound 0.1 µM, first compound 0.3 µM): 0.33% | viability, T/C (second compound 0.316 µM, first compound 0.000949 µM): 70.5% | viability, T/C (second compound 0.316 µM, first compound 0.003 µM): 39.5% | viability, T/C (second compound 0.316 µM, first compound 0.00949 µM): 2.17% | viability, T/C (second compound 0.316 µM, first compound 0.03 µM): 2.47% | viability, T/C (second compound 0.316 µM, first compound 0.0949 µM): 0.77% | viability, T/C (second compound 0.316 µM, first compound 0.3 µM): 1.41% | viability, T/C (second compound 1 µM, first compound 0.000949 µM): 2.7% | viability, T/C (second compound 1 µM, first compound 0.003 µM): 0.91% | viability, T/C (second compound 1 µM, first compound 0.00949 µM): 1.02% | viability, T/C (second compound 1 µM, first compound 0.03 µM): 0.56% | viability, T/C (second compound 1 µM, first compound 0.0949 µM): 0.24% | viability, T/C (second compound 1 µM, first compound 0.3 µM): 0.28% | viability, T/C (second compound 3.16 µM, first compound 0.000949 µM): 0.51% | viability, T/C (second compound 3.16 µM, first compound 0.003 µM): 0.34% | viability, T/C (second compound 3.16 µM, first compound 0.00949 µM): 0.26% | viability, T/C (second compound 3.16 µM, first compound 0.03 µM): 0.67% | viability, T/C (second compound 3.16 µM, first compound 0.0949 µM): 0.47% | viability, T/C (second compound 3.16 µM, first compound 0.3 µM): 0.21% | viability, T/C (second compound 10 µM, first compound 0.000949 µM): 0.41% | viability, T/C (second compound 10 µM, first compound 0.003 µM): 1.36% | viability, T/C (second compound 10 µM, first compound 0.00949 µM): 1.47% | viability, T/C (second compound 10 µM, first compound 0.03 µM): 1.13% | viability, T/C (second compound 10 µM, first compound 0.0949 µM): 0.38% | viability, T/C (second compound 10 µM, first compound 0.3 µM): 0.22%
